The target in one assay is DAGLβ (hDAGLβ-FLAG) (Homo sapiens (Human), UniProt Q8NCG7). Description: competitive ABPP, membrane proteome of transfected HEK293T cells. The assay is classed as biochemical. The note with it: for inhibition at 0.8 µM: read-out: DAGLβ % inh. 0.8 μM. How it is done:
(§1) Compounds 19 and 20 were tested for in vitro inhibition of DAGLα and DAGLβ as measured by competitive activity-based protein profiling (ABPP) of […] using a HT-01 probe (targets DAGLα and DAGLβ) and a FP-Rh probe (targets serine hydrolases).
(§2) Briefly, membrane proteome (1 mg/ml, 20 μL) was prepared from HEK293T cells (transiently transfected with hDAGLα-FLAG or hDAGLα-S472A-FLAG, hDAGLβ-FLAG or hDAGLβ-S443A-FLAG) as described in Example 16. The proteome was incubated at room temperature with vehicle (DMSO) or compound in 0.5 μL DMSO for 30 min. The membrane proteome sample was subsequently treated for 30 min with HT-01 probe (1 μM) or FP-Rh probe (1 μM). The reactions were quenched with 10 μL 3× Laemmli sample buffer (final concentrations: 60 mM Tris-Cl pH 6.8, 2% (w/v) SDS, 10% (v/v) glycerol, 5% (v/v) (3-mercaptoethanol, 0.01% (v/v) bromophenol blue). The samples were directly loaded and resolved on SDS page gel (10% acrylamide). The gels were scanned using a ChemiDoc MP system (Cy3 settings, 605/50 filter).
(§3) The resolved proteins were transferred from the gels to a polyvinyldifluoride membrane for Western Blotting using a Trans-Blot® Turbo (BioRad). FLAG-tagged enzymes were stained using rabbit anti-FLAG as primary antibody, and goat-anti-rabbit HRP as secondary antibody. The blot was developed in the dark using a 10 mL luminal solution, 100 μL ECL enhancer and 3 μL H2O2. Chemiluminescence was visualized using a ChemiDoc XRS (BioRad).
(§4) The percentage of DAGL activity remaining in the assayed samples was determined by measuring the integrated optical intensity of the fluorescent protein bands of the Western Blot using image lab 4.1. The relative intensity was compared to the vehicle (DMSO) treated proteins, which were set to 100%. IC50 values were determined by plotting a log(inhibitor) vs. normalized response (Variable slope) dose-response curve generated using Prism software (GraphPad).

A further assay concerns the target DAGLα (hDAGLα-FLAG) (Homo sapiens (Human), UniProt Q9Y4D2). The assay is described as above. The format is biochemical. The settings on record: for inhibition at 0.8 µM / DAGLα % inh. 0.8 μM: 0.8 μM (stated under the cell); for inhibition at 0.8 µM: read-out: DAGLα % inh. 0.8 μM. How it is done:
as §1, §2, §3, §4

The mark [1] stands for this setting: ABPP method, n=3, read-out: IC50, DAGLβ.
Setting [2] is: ABPP method, n=3, read-out: IC50, DAGLα.

Where two headings read alike, the source gives them in different places. Some results are limits rather than exact numbers.

Sequence of DAGLα (hDAGLα-FLAG) (Q9Y4D2 whole entry): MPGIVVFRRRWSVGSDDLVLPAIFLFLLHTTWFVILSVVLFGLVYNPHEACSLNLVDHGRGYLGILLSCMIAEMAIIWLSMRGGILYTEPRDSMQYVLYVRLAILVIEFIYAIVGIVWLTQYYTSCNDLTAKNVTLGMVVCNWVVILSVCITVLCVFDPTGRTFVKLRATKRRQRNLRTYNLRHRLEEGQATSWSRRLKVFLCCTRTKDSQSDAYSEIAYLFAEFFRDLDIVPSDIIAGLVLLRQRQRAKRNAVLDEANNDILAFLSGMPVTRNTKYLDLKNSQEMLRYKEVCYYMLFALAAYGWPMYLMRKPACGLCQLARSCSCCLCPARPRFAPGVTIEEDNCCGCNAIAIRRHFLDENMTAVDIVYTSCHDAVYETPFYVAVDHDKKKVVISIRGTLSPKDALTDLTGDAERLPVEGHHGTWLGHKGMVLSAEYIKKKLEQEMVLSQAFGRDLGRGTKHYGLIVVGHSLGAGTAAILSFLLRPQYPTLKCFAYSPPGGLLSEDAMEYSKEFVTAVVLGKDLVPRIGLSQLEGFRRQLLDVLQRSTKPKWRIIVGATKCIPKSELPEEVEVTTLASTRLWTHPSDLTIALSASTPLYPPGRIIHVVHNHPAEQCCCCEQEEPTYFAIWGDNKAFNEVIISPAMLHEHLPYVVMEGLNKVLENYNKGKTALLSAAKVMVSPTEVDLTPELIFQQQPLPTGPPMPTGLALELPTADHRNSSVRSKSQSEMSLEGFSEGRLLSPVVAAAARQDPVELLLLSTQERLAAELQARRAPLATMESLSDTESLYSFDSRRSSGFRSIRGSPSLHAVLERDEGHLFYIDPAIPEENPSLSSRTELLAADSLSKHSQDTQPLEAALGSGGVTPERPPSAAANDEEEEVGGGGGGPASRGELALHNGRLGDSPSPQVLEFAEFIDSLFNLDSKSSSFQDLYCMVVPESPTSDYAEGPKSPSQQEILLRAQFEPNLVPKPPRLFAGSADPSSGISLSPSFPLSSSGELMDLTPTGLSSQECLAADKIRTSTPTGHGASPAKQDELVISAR
Sequence of DAGLβ (hDAGLβ-FLAG) (Q8NCG7 whole entry): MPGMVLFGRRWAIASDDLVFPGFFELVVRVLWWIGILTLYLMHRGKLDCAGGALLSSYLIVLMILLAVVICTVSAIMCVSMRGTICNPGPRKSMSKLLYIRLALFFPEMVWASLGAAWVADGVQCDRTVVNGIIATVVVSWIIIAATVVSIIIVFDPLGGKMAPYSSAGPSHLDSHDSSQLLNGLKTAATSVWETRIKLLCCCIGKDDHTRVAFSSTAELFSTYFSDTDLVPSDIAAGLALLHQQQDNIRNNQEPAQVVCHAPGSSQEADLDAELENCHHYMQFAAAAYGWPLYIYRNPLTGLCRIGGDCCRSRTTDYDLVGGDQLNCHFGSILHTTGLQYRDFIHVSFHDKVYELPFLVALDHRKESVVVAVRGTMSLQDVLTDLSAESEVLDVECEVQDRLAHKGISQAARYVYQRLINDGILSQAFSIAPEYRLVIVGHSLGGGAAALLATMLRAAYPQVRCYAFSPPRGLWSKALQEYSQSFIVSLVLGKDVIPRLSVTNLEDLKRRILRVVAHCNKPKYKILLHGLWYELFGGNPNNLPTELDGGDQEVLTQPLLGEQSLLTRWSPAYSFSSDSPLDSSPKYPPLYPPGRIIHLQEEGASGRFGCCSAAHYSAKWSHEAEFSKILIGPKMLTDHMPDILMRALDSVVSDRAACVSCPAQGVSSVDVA

A word on the IC50: it is the midpoint of a concentration-inhibition curve. On to `COc1cncc(OC)c1-c1ccc(-c2cn(C(=O)N3CCCCC3Cc3ccccc3)nn2)cc1` (centres unmarked) [Compound 19, (2-Benzylpiperidin-1-yl)(4-(4-(3,5-dimethoxypyridin-4-yl)phenyl)-1H-1,2,3-triazol-1-yl)methanone], for which the IC50 was 0.106 µM at DAGLβ (hDAGLβ-FLAG) (setting [1]), ≤ 0.4 µM at DAGLβ (hDAGLβ-FLAG) (read-out: DAGLβ IC50), 0.0095 µM at DAGLα (hDAGLα-FLAG) (setting [2]) and ≤ 0.4 µM on DAGLα (hDAGLα-FLAG) (read-out: DAGLα IC50).
As for `COc1cc(OC)c(-c2ccc(-c3cn(C(=O)N4CCCCC4Cc4ccccc4)nn3)cc2)c(OC)c1` (centres unmarked) [Compound 20, (2-Benzylpiperidin-1-yl)(4-(2′,4′,6′-trimethoxybiphenyl-4-yl)-1H-1,2,3-triazol-1-yl)methanone], the concentration for half-maximal inhibition (IC50) is 0.319 µM at DAGLβ (hDAGLβ-FLAG) (setting [1]), ≤ 0.4 µM at DAGLβ (hDAGLβ-FLAG) (read-out: DAGLβ IC50), 0.016 µM at DAGLα (hDAGLα-FLAG) (setting [2]) and ≤ 0.4 µM on DAGLα (hDAGLα-FLAG) (read-out: DAGLα IC50).
Regarding `CC(C)(C)OC(=O)N1CCN(C(=O)n2ncc(-c3ccc(OC(F)(F)F)cc3)n2)C(c2ccccc2)C1` (centres unmarked) [Compound 23, tert-butyl 3-phenyl-4-(4-(4-(trifluoromethoxy)phenyl)-2H-1,2,3-triazole-2-carbonyl)piperazine-1-carboxylate], the inhibition at 0.8 µM at DAGLβ (hDAGLβ-FLAG) (0.8 μM (stated under the cell)) and on DAGLα (hDAGLα-FLAG) was 0 to 25% in each case.
Regarding `CC(C)C(=O)N1CCN(C(=O)n2cc(-c3ccc(OC(F)(F)F)cc3)nn2)C(Cc2ccccc2)C1` (centres unmarked) [Compound 26, 1-(3-benzyl-4-(4-(4-(trifluoromethoxy)phenyl)-1H-1,2,3-triazole-1-carbonyl)piperazin-1-yl)-2-methylpropan-1-one], the inhibition at 0.8 µM at DAGLβ (hDAGLβ-FLAG) (0.8 μM (stated under the cell)) fell in the range of 0 to 25%. In addition, the “DAGLα % inh. 0.8 μM” value on DAGLα (hDAGLα-FLAG) was “* (% inhibition greater than or equal to 0% and less than 25%)”.
With `CC(C)C(=O)N1CCN(C(=O)n2ncc(-c3ccc(OC(F)(F)F)cc3)n2)C(Cc2ccccc2)C1` (centres unmarked) [Compound 27, 1-(3-benzyl-4-(4-(4-(trifluoromethoxy)phenyl)-2H-1,2,3-triazole-2-carbonyl)piperazin-1-yl)-2-methylpropan-1-one], the inhibition at 0.8 µM at DAGLβ (hDAGLβ-FLAG) (0.8 μM (stated under the cell)) and on DAGLα (hDAGLα-FLAG) was 0 to 25% in each case.
With `CC(C)C(=O)N1CCN(C(=O)n2cc(-c3ccc(OC(F)(F)F)cc3)nn2)C(Cc2ccccc2)C1` (centres unmarked) [Compound 30, 1-(3-benzyl-4-(4-(4-(trifluoromethoxy)phenyl)-1H-1,2,3-triazole-1-carbonyl)piperazin-1-yl)-2-methylpropan-1-one], on DAGLβ (hDAGLβ-FLAG) (0.8 μM (stated under the cell)), the “DAGLβ % inh. 0.8 μM” value is “* (% inhibition greater than or equal to 0% and less than 25%)”. For the same compound, the “DAGLα % inh. 0.8 μM” value at DAGLα (hDAGLα-FLAG) was “*** (% inhibition greater than or equal to 50% and less than 75%)”.
As for `C#CCCCC(=O)N1CCN(C(=O)n2cc(-c3ccc(OC(F)(F)F)cc3)nn2)C(Cc2ccccc2)C1` (centres unmarked) [Compound 34, 1-(3-benzyl-4-(4-(4-(trifluoromethoxy)phenyl)-1H-1,2,3-triazole-1-carbonyl)piperazin-1-yl)hex-5-yn-1-one], the inhibition at 0.8 µM at DAGLβ (hDAGLβ-FLAG) (0.8 μM (stated under the cell)) lay within 0 to 25%; at DAGLα (hDAGLα-FLAG), 25 to 50%.
Take `C#CCCCC(=O)N1CCN(C(=O)n2ncc(-c3ccc(OC(F)(F)F)cc3)n2)C(Cc2ccccc2)C1` (centres unmarked) [Compound 35, 1-(3-benzyl-4-(4-(4-(trifluoromethoxy)phenyl)-2H-1,2,3-triazole-2-carbonyl)piperazin-1-yl)hex-5-yn-1-one]: the inhibition at 0.8 µM on DAGLβ (hDAGLβ-FLAG) (0.8 μM (stated under the cell)) and at DAGLα (hDAGLα-FLAG) was 0 to 25% each time.
`O=C(N1C[C@@H](OCC2CC2)CC[C@@H]1Cc1ccccc1)n1cc(-c2ccc(OC(F)(F)F)cc2)nn1` [Compound 44, ((2R,5S)-2-benzyl-5-(cyclopropylmethoxy)piperidin-1-yl)(4-(4-(trifluoromethoxy)phenyl)-1H-1,2,3-triazol-1-yl)methanone]: the inhibition at 0.0032 µM fell in the range of 0 to 25% on DAGLβ (hDAGLβ-FLAG) (read-out: DAGLβ % inh. 3.2 nM) and 25 to 50% on DAGLα (hDAGLα-FLAG) (3.2 nM, read-out: DAGLα % inh. 3.2 nM).
As to `CCC(CC)CN(CCc1ccccc1)C(=O)n1ncc(-c2ccc(OC(F)(F)F)cc2)n1` [Compound 126, N-(2-ethylbutyl)-N-phenethyl-4-(4-(trifluoromethoxy)phenyl)-2H-1,2,3-triazole-2-carboxamide], at DAGLα (hDAGLα-FLAG) (read-out: DAGLα IC50), the IC50 lay within 2 to 10 µM.
